According to patent US10081624B2, “Heterocyclic compound” (Takeda Pharmaceutical Company Limited, priority 2014, dated 2018):

Legend:
HDAC6 enzyme = molecular target: T1, HDAC6 enzyme (Homo sapiens, UniProt Q9UBN7); assay: HDAC6 enzyme inhibitory assay (HDAC-Glo I/II Assay kit); type: biochemical; settings: 1 μM test compound; for inhibition at 1 µM: read-out: HDAC6 inhibitory rate (%) (1 μM)
T1 construct: prepared by transducing full length HDAC1 and HDAC6 genes into Sf-9 insect cells; GST; purchased SignalChem; host or cells: Sf-9 insect cells
T1 sequence (Q9UBN7 1-1215): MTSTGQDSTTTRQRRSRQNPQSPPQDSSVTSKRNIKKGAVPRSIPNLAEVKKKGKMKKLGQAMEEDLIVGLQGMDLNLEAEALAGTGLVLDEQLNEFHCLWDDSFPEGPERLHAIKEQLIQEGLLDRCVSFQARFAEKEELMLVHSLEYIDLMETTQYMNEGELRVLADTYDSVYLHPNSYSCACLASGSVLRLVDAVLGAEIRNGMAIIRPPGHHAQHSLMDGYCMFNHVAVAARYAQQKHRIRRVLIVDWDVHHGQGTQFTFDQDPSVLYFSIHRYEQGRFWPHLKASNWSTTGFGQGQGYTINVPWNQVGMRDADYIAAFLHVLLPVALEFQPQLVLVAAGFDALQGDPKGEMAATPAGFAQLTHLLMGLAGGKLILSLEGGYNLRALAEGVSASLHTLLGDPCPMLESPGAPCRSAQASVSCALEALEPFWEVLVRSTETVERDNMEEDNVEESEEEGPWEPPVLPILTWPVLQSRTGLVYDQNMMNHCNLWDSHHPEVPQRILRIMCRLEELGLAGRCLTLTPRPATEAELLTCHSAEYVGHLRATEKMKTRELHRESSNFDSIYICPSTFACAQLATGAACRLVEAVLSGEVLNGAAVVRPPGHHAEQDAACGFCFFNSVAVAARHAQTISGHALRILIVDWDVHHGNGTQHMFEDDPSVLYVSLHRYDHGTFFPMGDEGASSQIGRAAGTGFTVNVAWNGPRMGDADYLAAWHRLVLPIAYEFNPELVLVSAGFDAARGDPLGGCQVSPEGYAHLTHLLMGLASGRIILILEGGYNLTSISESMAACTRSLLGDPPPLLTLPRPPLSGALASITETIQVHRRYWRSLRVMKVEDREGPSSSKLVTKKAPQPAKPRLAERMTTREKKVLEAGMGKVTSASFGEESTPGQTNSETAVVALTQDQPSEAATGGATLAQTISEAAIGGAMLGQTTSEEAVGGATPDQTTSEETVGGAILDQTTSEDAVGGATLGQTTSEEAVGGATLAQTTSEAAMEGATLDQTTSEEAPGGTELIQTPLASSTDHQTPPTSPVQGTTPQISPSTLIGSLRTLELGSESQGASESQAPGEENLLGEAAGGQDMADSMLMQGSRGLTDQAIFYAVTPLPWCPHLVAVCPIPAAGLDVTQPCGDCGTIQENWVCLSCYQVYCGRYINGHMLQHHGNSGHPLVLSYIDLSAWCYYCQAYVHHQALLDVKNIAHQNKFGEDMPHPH
Procedure, shortened: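 Luminescent HDAC-Glo I/II read-out after 20 min room-temperature reaction with substrate-developer, following a 60 min room-temperature enzyme–compound preincubation. Enzymes: full-length HDAC1 or HDAC6 from Sf-9 cells, GST-purified; buffer pH 7.5 Tris with NaCl, glutathione, 0.01% Tween-20. No-enzyme wells defined 100% inhibition.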

HDAC1 enzyme = molecular target: T2, HDAC1 enzyme (Homo sapiens, UniProt Q13547); assay: HDAC1 enzyme inhibitory assay (HDAC-Glo I/II Assay kit); type: biochemical; settings: 1 μM test compound; for inhibition at 1 µM: read-out: HDAC1 inhibitory rate (%) (1 μM)
T2 construct: prepared by transducing full length HDAC1 and HDAC6 genes into Sf-9 insect cells; GST; purchased SignalChem; host or cells: Sf-9 insect cells
Experimental: HDAC1 enzyme and HDAC6 enzyme each prepared by transducing full length HDAC1 and HDAC6 genes into Sf-9 insect cells and purifying by GST affinity column were purchased from SignalChem. Using these enzymes, HDAC1 and/or HDAC6 enzyme inhibitory activities of the compound of the present invention were evaluated. Enzymes were used after preserved at −70° C. HDAC1 or HDAC6 enzyme inhibitory activity of the compound of the present invention was measured using HDAC-Glo™ I/II Assay kit (Promega) according to the following experimental method. The test compound diluted with assay buffer (24 mM Tris-HCl (pH 7.5), 1 mM MgCl2, 0.35 mM KCl, 135 mM NaCl, 0.6 mM Glutathione, 0.01% Tween-20) was added to a 384-well plate by each 2 μL. Then, HDAC1 or HDAC6 enzyme solution diluted with assay buffer was added thereto by each 4 μL, and the plate was incubated at room temperature for 60 min. After incubated, HDAC substrate-Developer solution prepared according to Promega protocol attached to the assay kit was added to the 384-well plate by each 2 μL, and the enzyme reaction was started. After reacting at room temperature for 20 min, luminescence level was measured using plate reader Envision (PerkinElmer). The inhibitory activity of each compound was calculated as a relative activity value when luminescence level in wells without enzyme is considered as 100% inhibition.

T2 sequence (Q13547 whole entry): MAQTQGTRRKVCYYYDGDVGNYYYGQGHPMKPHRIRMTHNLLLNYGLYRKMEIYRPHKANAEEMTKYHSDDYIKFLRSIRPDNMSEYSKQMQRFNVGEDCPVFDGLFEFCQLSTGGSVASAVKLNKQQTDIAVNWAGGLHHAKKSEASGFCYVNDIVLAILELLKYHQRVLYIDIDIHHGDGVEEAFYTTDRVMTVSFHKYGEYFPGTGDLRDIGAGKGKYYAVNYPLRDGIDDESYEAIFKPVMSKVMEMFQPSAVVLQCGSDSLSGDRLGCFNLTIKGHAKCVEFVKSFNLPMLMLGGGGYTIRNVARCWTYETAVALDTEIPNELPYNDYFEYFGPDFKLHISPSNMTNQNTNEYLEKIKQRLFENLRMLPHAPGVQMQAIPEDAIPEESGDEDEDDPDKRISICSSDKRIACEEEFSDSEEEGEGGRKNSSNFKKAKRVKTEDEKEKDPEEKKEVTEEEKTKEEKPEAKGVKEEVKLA

SMILES	inhibition at 1 µM (HDAC6 enzyme) [%]	inhibition at 1 µM (HDAC1 enzyme) [%]	HDAC6 inhibitory rate (%) (1 μM) (HDAC6 enzyme; 1 µM)	HDAC1 inhibitory rate (%) (1 μM) (HDAC1 enzyme; 1 µM)
Cc1csc(C(=O)N2CCOC[C@H]2CNC(=O)c2ccc(-c3noc(C(F)(F)F)n3)cc2)c1 [Example 145, N-(((3R)-4-((4-methyl-2-thienyl)carbonyl)morpholin-3-yl)methyl)-4-(5-(trifluoromethyl)-1,2,4-oxadiazol-3-yl)benzamide]	97	15		
O=C(NC[C@@H]1COCCN1C(=O)CC1CC1)c1ccc(-c2noc(C(F)(F)F)n2)cc1 [Example 148, N-(((3R)-4-(cyclopropylacetyl)morpholin-3-yl)methyl)-4-(5-(trifluoromethyl)-1,2,4-oxadiazol-3-yl)benzamide]	95	10		
O=C(NC[C@@H]1COCCN1C(=O)C1(c2ccccc2)CC1)c1ccc(-c2noc(C(F)(F)F)n2)cn1 [Example 208, N-(((3R)-4-((1-phenylcyclopropyl)carbonyl)morpholin-3-yl)methyl)-5-(5-(trifluoromethyl)-1,2,4-oxadiazol-3-yl)pyridine-2-carboxamide]	92	16		
NC(=O)[C@@H]1CCCN1C(=O)N1CCOC[C@@H]1CNC(=O)c1ccc(-c2noc(C(F)(F)F)n2)cc1 [Example 283, 1-(((3S)-3-(((4-(5-(trifluoromethyl)-1,2,4-oxadiazol-3-yl)benzoyl)amino)methyl)morpholin-4-yl)carbonyl)-L-prolinamide]	73	-1		
O=C(NCC1COCCN1C(=O)C1(c2ccccc2)CC1)c1ccc(-c2noc(C(F)(F)F)n2)s1 (centres unmarked) [Example 248, N-((4-((1-phenylcyclopropyl)carbonyl)morpholin-3-yl)methyl)-5-(5-(trifluoromethyl)-1,2,4-oxadiazol-3-yl)thiophene-2-carboxamide]	97	18		
COC[C@H]1CCCN1C(=O)N1CCOC[C@@H]1CNC(=O)c1ccc(-c2noc(C(F)(F)F)n2)cc1 [Example 272, N-(((3S)-4-(((2R)-2-(methoxymethyl)pyrrolidin-1-yl)carbonyl)morpholin-3-yl)methyl)-4-(5-(trifluoromethyl)-1,2,4-oxadiazol-3-yl)benzamide]	99	5		
O=C(NCC1CCCCN1C(=O)c1ccccc1)c1ccc(-c2noc(C(F)(F)F)n2)cc1 (centres unmarked) [Example 163, N-((1-benzoylpiperidin-2-yl)methyl)-4-(5-(trifluoromethyl)-1,2,4-oxadiazol-3-yl)benzamide]	97	25		
O=C(NC[C@H]1COCCN1C(=O)N1CCC(CCO)CC1)c1ccc(-c2noc(C(F)(F)F)n2)cc1 [Example 279, N-(((3S)-4-((4-(2-hydroxyethyl)piperidin-1-yl)carbonyl)morpholin-3-yl)methyl)-4-(5-(trifluoromethyl)-1,2,4-oxadiazol-3-yl)benzamide]	90	10		
Cc1nc2ccccn2c1C(=O)N1CCOCC1CNC(=O)c1ccc(-c2noc(C(F)(F)F)n2)cc1 (stereo in doubt) [Example 92, N-(((3S)-4-((2-methylimidazo[1,2-a]pyridin-3-yl)carbonyl)morpholin-3-yl)methyl)-4-(5-(trifluoromethyl)-1,2,4-oxadiazol-3-yl)benzamide]	97	36		
O=C(NCC1COCCN1C(=O)c1cc(Cl)cc(Cl)c1)c1ccc(-c2noc(C(F)(F)F)n2)cn1 (centres unmarked) [Example 182, N-((4-(3,5-dichlorobenzoyl)morpholin-3-yl)methyl)-5-(5-(trifluoromethyl)-1,2,4-oxadiazol-3-yl)pyridine-2-carboxamide]	97	42		
O=C(NC[C@H]1COCCN1C(=O)c1ccnn1CCO)c1ccc(-c2noc(C(F)(F)F)n2)cc1 [Example 296, N-(((3S)-4-((1-(2-hydroxyethyl)-1H-pyrazol-5-yl)carbonyl)morpholin-3-yl)methyl)-4-(5-(trifluoromethyl)-1,2,4-oxadiazol-3-yl)benzamide]	100	32		
O=C(NC[C@H]1COCCN1C(=O)N1CCC[C@@H]1C(F)(F)F)c1ccc(-c2noc(C(F)(F)F)n2)cc1 [Example 286, 4-(5-(trifluoromethyl)-1,2,4-oxadiazol-3-yl)-N-(((3S)-4-(((2R)-2-(trifluoromethyl)pyrrolidin-1-yl)carbonyl)morpholin-3-yl)methyl)benzamide]	95	2		
O=C(NCC1COCCN1C(=O)c1cccc(-c2ccccc2)c1)c1ccc(-c2noc(C(F)(F)F)n2)cc1 (centres unmarked) [Example 31, N-((4-(biphenyl-3-ylcarbonyl)morpholin-3-yl)methyl)-4-(5-(trifluoromethyl)-1,2,4-oxadiazol-3-yl)benzamide]	96	28		
O=C(NCC1COCCN1C(=O)c1ccccc1Cl)c1ccc(-c2noc(C(F)(F)F)n2)cc1 (centres unmarked) [Example 6, N-((4-(2-chlorobenzoyl)morpholin-3-yl)methyl)-4-(5-(trifluoromethyl)-1,2,4-oxadiazol-3-yl)benzamide]	111	22		
O=C(NC[C@H]1COCCN1C(=O)N1CCC[C@H]1C(F)(F)F)c1ccc(-c2noc(C(F)(F)F)n2)cc1 [Example 287, 4-(5-(trifluoromethyl)-1,2,4-oxadiazol-3-yl)-N-(((3S)-4-(((2S)-2-(trifluoromethyl)pyrrolidin-1-yl)carbonyl)morpholin-3-yl)methyl)benzamide]	91	2		
O=C(C[C@H]1COCCN1C(=O)c1ccccc1)Nc1ccc(-c2noc(C(F)(F)F)n2)cc1 [Example 160, 2-((3S)-4-benzoylmorpholin-3-yl)-N-(4-(5-(trifluoromethyl)-1,2,4-oxadiazol-3-yl)phenyl)acetamide]	98	15		
O=C(NC[C@H]1COCCN1C(=O)c1cccc(F)c1)c1ccc(-c2noc(C(F)(F)F)n2)cc1 [Example 41, N-(((3S)-4-(3-fluorobenzoyl)morpholin-3-yl)methyl)-4-(5-(trifluoromethyl)-1,2,4-oxadiazol-3-yl)benzamide]			98	65
Cc1oc2ccccc2c1C(=O)N1CCOC[C@@H]1CNC(=O)c1ccc(-c2noc(C(F)(F)F)n2)cc1 [Example 308, N-(((3S)-4-((2-methyl-1-benzofuran-3-yl)carbonyl)morpholin-3-yl)methyl)-4-(5-(trifluoromethyl)-1,2,4-oxadiazol-3-yl)benzamide]	100	46		
O=C(NCC1COCCN1C(=O)c1ccccc1N1CCOCC1)c1ccc(-c2noc(C(F)(F)F)n2)cc1 (stereo in doubt) [Example 118, N-(((3R)-4-(2-(morpholin-4-yl)benzoyl)morpholin-3-yl)methyl)-4-(5-(trifluoromethyl)-1,2,4-oxadiazol-3-yl)benzamide]	97	17		
